Assay results as given in PubChem BioAssay AID2765 (Broad Institute, 2010).
Activity calls are given as the source filed them.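 How the source made its calls: active means half-maximal concentration for the rise in caspase light signal at or below ten times the top tested dose; inconclusive means flat fit between 30% and 70% activity, or unreliable curve fit; inactive means the rest.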

These compounds were tested on MEF A1-2A-BIM cells, caspase 3/7 luminescence, 3 h (assay: caspase activation in A1-2A-BIM MEF cells, dose response, A1 inhibitor project, cell-based, luminescence, retest (AID 2765)).

SMILES | EC50
COc1ccc(NC(=O)c2cccc3c2C(=O)c2ccc(-c4ccc(F)cc4OCc4ccccc4)cc2S3(=O)=O)cc1 | > 35 µM (inactive)
CCc1nnc(NC(=O)CSc2nc(-c3ccccc3)cc(-c3ccc(F)cc3)c2C#N)s1 | 24.2 µM
COc1ccc(CCNC(=O)C2=COCCO2)cc1 | > 35 µM (inactive)
COc1ccc(S(=O)(=O)N2CC(O)CC2C(=O)OCc2nc3sc(C)c(C)c3c(=O)[nH]2)cc1 (centres undefined) | > 35 µM (inactive)
COc1cc(/C=C2/C(=N)N3C=CSC3=NC2=O)ccc1OCCCOc1cc(C)ccc1C | 7.28 µM
COc1ccc(C2C(C(=O)c3ccc(C)o3)=C(O)C(=O)N2Cc2cccnc2)cc1OC (centres undefined) | > 35 µM (inactive)
CCCCOC(=O)c1ccc(S(N)(=O)=O)o1 | > 35 µM (inactive)
COC(=O)C(CO)Nc1ncnc2onc(-c3ccc(F)cc3)c12 (centres undefined) | > 35 µM (inactive)
Cc1[nH]nc2nc(SCC(=O)NCCC3=CCCCC3)n(-c3ccc(Br)cc3)c(=N)c12 | 13.9 µM
Cc1ccc(C)c(N(C(=O)CCC(=O)Nc2cc(C)on2)C(C(=O)NC2CCCC2)c2ccco2)c1 (centres undefined) | > 35 µM (inactive)
O=C(CSc1ccc(F)cc1)Nc1ccc(C2SCCS2)cc1 | > 35 µM (inactive)
O=C(CBr)Nc1c2c(nn1-c1ccccc1)CSC2 | > 35 µM (inactive)
Clc1nc(NCc2ccco2)nc(N2CCCCC2)n1 | > 35 µM (inactive)
Cc1ccc(S(=O)(=O)N(C)Cc2ccc(C(=O)N/N=C/c3ccc(OC(F)F)cc3)cc2)cc1 | > 35 µM (inactive)
CC(C)(C)OC(=O)n1cc(CCO)c2ccccc21 | > 35 µM (inactive)
O=C(/C=C/c1ccc(Cl)c(Cl)c1)NC1=NCCS1 | > 35 µM (inactive)
O=C(NCc1cccs1)C(=O)NCC1OCCCN1S(=O)(=O)c1ccccc1 (centres undefined) | > 35 µM (inactive)
CCN(CC(=O)NCc1ccc(Cl)cc1)S(=O)(=O)c1ccc(F)cc1 | > 35 µM (inactive)
CCN(CC)CCSc1nnc2c3ccccc3n(Cc3ccccc3)c2n1 | > 35 µM (inactive)
O=C(COc1ccc(/C=N/NC(=O)c2cc3ccccc3o2)cc1Br)Nc1ccccc1 | 31.2 µM
COc1cc(-c2cc(-c3ccccc3)nc(SCC(=O)Nc3nccs3)c2C#N)cc(OC)c1OC | > 35 µM (inactive)
CCOc1ccccc1NC(=O)c1nc(S(=O)(=O)Cc2cccc(C)c2)ncc1Cl | > 35 µM (inactive)
O=C(NC1CCCC1)c1cccc2c1C(=O)c1ccc(/C=C/c3ccccc3)cc1S2(=O)=O | 10.6 µM
Cc1ccc(CNC(=O)CCS(=O)(=O)c2ccc3c(c2)CC(C)N3C(=O)C2CC2)o1 (centres undefined) | > 35 µM (inactive)
O=C(N/N=C\c1ccc(CN(Cc2ccc(Cl)cc2)S(=O)(=O)c2ccccc2)o1)C(=O)Nc1ccc(F)cc1 | > 35 µM (inactive)

SMILES | EC50
Cc1cc(C)cc(N(CC(=O)Nc2cccc(C)c2C)S(=O)(=O)c2c(C)[nH]c(=O)[nH]c2=O)c1 | > 35 µM (inactive)
O=C(NCc1ccco1)/C(=C/c1ccc([N+](=O)[O-])cc1)NC(=O)c1ccco1 | > 35 µM (inactive)
COc1cc(/C=C/[N+](=O)[O-])ccc1OC(=O)c1cccnc1 | 12.5 µM
Cc1ccc(-c2nc(NC(=O)c3nn(C)cc3[N+](=O)[O-])sc2C)cc1C | 6.26 µM
Cc1cc(C(=O)CCl)c(C)n1CCc1ccc(Cl)cc1 | > 35 µM (inactive)
O=C(/C=C/c1ccccc1)Nc1cccnc1 | > 35 µM (inactive)
COc1ccc(/C=C/C(=O)NC(=S)NCCc2ccc(OC)c(OC)c2)cc1 | > 35 µM (inactive)
CCc1cccc(NC(=O)C2CCN(S(=O)(=O)c3ccc4c(c3)NC(=O)CO4)CC2)c1 | > 35 µM (inactive)
Cc1c(C(=O)c2ccccc2C(=O)O)sc2ccccc12 | > 35 µM (inactive)
CC(C)(C)C1=CC=C(C(C)(C)C)C(=O)C1=O | > 35 µM (inactive)
COc1cc2c(c(OC)c1OC)-c1ccc(O)c(=O)cc1C(NC(C)=O)CC2 (centres undefined) | > 35 µM (inactive)
O=C(COC(=O)c1ccc(CN2CCCC2=O)cc1)Nc1ccc(F)cc1 | > 35 µM (inactive)
CNC(C)C(=O)NC(C(=O)N1CCCC1C(=O)NC1CCCc2ccccc21)C(C)C (centres undefined) | > 35 µM (inactive)
CCOc1ccc(OCC(=O)N(CCC2=CCCCC2)c2c(N)n(Cc3ccccc3)c(=O)[nH]c2=O)cc1 | 19.1 µM
COc1ccccc1N1C(=O)c2cccc3c(Cl)ccc(c23)C1=O | > 35 µM (inactive)
COc1ccc(N2CCN(C(=O)C3CCN(C(=O)c4ccc([N+](=O)[O-])cc4)CC3)CC2)cc1 | > 35 µM (inactive)
COc1ccccc1N1CCN(C(=O)c2ccc(C(C)(C)C)cc2)CC1 | > 35 µM (inactive)
COc1ccc(OC)c(/C=C/C(=O)N(C)CC(=O)Nc2cc(C)ccc2C)c1 | > 35 µM (inactive)
Cn1nc(-c2ccc(OCC(=O)NCC3CCCO3)cc2)c2ccccc2c1=O (centres undefined) | > 35 µM (inactive)
CCOc1ccccc1NC(=O)CN1C(=O)CSC(C)C1=O (centres undefined) | > 35 µM (inactive)
COc1ccc(C(CNC(=O)c2cc(S(=O)(=O)NCc3ccco3)ccc2C)N(C)C)cc1 (centres undefined) | > 35 µM (inactive)
CCCCCC(=O)N1CCCC1 | > 35 µM (inactive)
COC(=O)C1=C(C)N(Cc2ccccc2)C(=NCc2cc(OC)c(OC)c(OC)c2)N[C@H]1c1ccccc1 | > 35 µM (inactive)
CCOC(=O)C1=C(C)N(C)C(=O)C1CC(=O)O (centres undefined) | > 35 µM (inactive)
